The test system of data set [1] is RSV-Luc5. Kind of data set: microbe, parasite or virus in culture. Conditions: human respiratory syncytial virus, NHBE, 72 h, read-out: RSV NHBE EC50 (nM). Type of data set: cell-based.
Data set [2] has as its system Caco-2 cells (clone C2BBe1). Conditions: human.
Data set [3] is described as follows: in vitro. To be noted: human, plasma.
Data set [4] deals with SARS-CoV2-NLuc. The experiment in a line: microbe, parasite or virus in culture. To be noted: Severe acute respiratory syndrome coronavirus 2, 48 h, read-out: SARS-CoV2 EC50 (nM). Format: cell-based, SARS Coronavirus 2.
Data set [5] can be described thus: in vitro. Type of data set: cell-based. To be noted: human. The method, then:
Example C: CC50 MT4 Cytotoxicity of the compounds was determined in uninfected cells using the cell viability reagent in a similar fashion as described before for other cell types ([…] et al., Antimicrob Agents Chemother. 2008,52(2):655-65). […] Cells were cultured for 4-5 days at 37° C. Following the incubation, the cells were allowed to equilibrate to 25° C., and cell viability was determined by adding Cell-Titer Glo viability reagent. The mixture was incubated for 10 min, and the luminescence signal was quantified using an Envision plate reader. Untreated cell and cells treated at 2 μM puromycin (Sigma, St. Louis, MO) serve as 100% and 0% cell viability control, respectively. The percent of cell viability was calculated for each tested compound concentration relative to the 0% and 100% controls and the CC50 value was determined by non-linear regression as a compound concentration reducing the cell viability by 50%.

Data set [6] is described as follows: in vitro. Format: in vitro ADME. To be noted: human, s9, pH 7.4. The method, then:
Example D: GI S9 Stability […] The S9 metabolic reactions were initiated by the addition of the substrates to the S9 reaction mixture to a final concentration of 2 μM. […] Aliquots ([…]) of the diluted supernatant were analyzed on a Thermo Q-Exactive mass spectrometer as described below. Example F: Liquid Chromatography/Mass Spectroscopy Methods for S9 and Plasma Stability Quantification of test compounds, Reference Compound A (S9 stability assay nucleoside metabolite), and controls was performed by analyte/internal standard peak area ratio (PAR) values measured on a Thermo Q-Exactive mass spectrometer coupled to a Dionex UltiMate 3000 HPLC with a Leap Technologies HTC PAL autosampler. […] Mobile phase A consisted of 0.1% (v/v) formic acid in water. Mobile phase B consisted of 0.1% (v/v) formic acid in acetonitrile. Elution of analytes was achieved by a series of linear gradients of acetonitrile in water containing 0.10% (v/v) formic acid. The mass spectrometer was calibrated on a weekly basis and mass tolerance of 5 ppm was used.

Counter-ions that a name gives are not always drawn. Like-named read-outs stand apart in the source and are kept apart here. Where only a bound is given, the exact number is not on record here.

This is an account of results in patent US20240417411A1, “COMPOUNDS AND METHODS FOR TREATMENT OF VIRAL INFECTIONS” (priority 2023, published 2024).

On to `CC(C)(OC(=O)OC[C@H]1O[C@@](C#N)(c2ccc3c(N)ncnn23)[C@@H]2OC(=O)CCCC(=O)O[C@@H]21)c1ccncc1` [Compound C17, ((7aR,8R,10R,10aR)-10-(4-aminopyrrolo[2,1-f][1,2,4]triazin-7-yl)-10-cyano-2,6-dioxooctahydro-2H-furo[3,4-b][1,4]dioxonin-8-yl)methyl (2-(pyridin-4-yl)propan-2-yl) carbonate], for which the EC50 in data set [1] is more than 50000 nM. Moreover, in data set [2] (Caco-2), the “Caco2 A to B” value was 2.97 and the “Caco2 B to A” value came out at 15.86. Besides, the half-life at 2 μM in data set [3] came out at 31.1 min. In data set [4], the EC50 is 29900 nM. The compound also displayed a CC50 in data set [5] of more than 50 µM.
Consider `CN1[C@@H]2CC[C@H]1C[C@@H](OC(=O)OC[C@H]1O[C@@](C#N)(c3ccc4c(N)ncnn34)[C@@H]3OC(=O)CCCC(=O)O[C@@H]31)C2` [Compound C30, ((7aR,8R,10R,10aR)-10-(4-aminopyrrolo[2,1-f][1,2,4]triazin-7-yl)-10-cyano-2,6-dioxooctahydro-2H-furo[3,4-b][1,4]dioxonin-8-yl)methyl ((1R,3s,5S)-8-methyl-8-azabicyclo[3.2.1]octan-3-yl) carbonate formate], for which the EC50 is more than 50000 nM in data set [1] and 42500 nM in data set [4]. Besides, the “Caco2 A to B” value in data set [2] (Caco-2, 2 h) came to 0.02. In addition, the “Caco2 B to A” value in data set [2] (Caco-2, 2 h) came to 0.42. In addition, the half-life at 2 μM in data set [3] was found to be 24 min; in data set [6], 0.575 min. Besides, the CC50 in data set [5] was more than 50 µM.
Turning to `CC(C)OC(=O)OC[C@H]1O[C@@](C#N)(c2ccc3c(N)ncnn23)[C@@H]2OC(=O)CC(C)(C)CC(=O)O[C@@H]21` [Compound C3, ((7aR,8R,10R,10aR)-10-(4-aminopyrrolo[2,1-f][1,2,4]triazin-7-yl)-10-cyano-4,4-dimethyl-2,6-dioxooctahydro-2H-furo[3,4-b][1,4]dioxonin-8-yl)methyl isopropyl carbonate], the EC50 was more than 50000 nM in data set [1] and 12000 nM in data set [4]. Besides, the “Caco2 A to B” value in data set [2] (Caco-2) is on record as 5.9. For the same compound, the “Caco2 B to A” value in data set [2] (Caco-2) was found to be 7.3. For the same compound, the half-life at 2 μM in data set [3] is 1240 min; in data set [6] it was 6 min. This compound also yielded a CC50 in data set [5] of more than 50 µM.
As to `COC(=O)[C@H]([C@@H](C)OC(=O)OC[C@H]1O[C@@](C#N)(c2ccc3c(N)ncnn23)[C@@H]2OC(=O)CCCC(=O)O[C@@H]21)N(C)C` [Compound C31, (2S,3R)-methyl 3-(((((7aR,8R,10R,10aR)-10-(4-aminopyrrolo[2,1-f][1,2,4]triazin-7-yl)-10-cyano-2,6-dioxooctahydro-2H-furo[3,4-b][1,4]dioxonin-8yl)methoxy)carbonyl)oxy)-2-(dimethylamino)butanoate 2,2,2-trifluoroacetate], the EC50 in data set [1] is 9190 nM; in data set [4], 6060 nM. Besides, the “Caco2 A to B” value in data set [2] (Caco-2) was found to be 0.49. Also, the “Caco2 B to A” value in data set [2] (Caco-2) is recorded as 5.62. The half-life at 2 μM in data set [3] turned out to be 15.5 min; in data set [6], 0.57 min. This compound registered a CC50 in data set [5] of more than 50 µM.
As to `COC(=O)[C@H]([C@@H](C)OC(=O)OC[C@H]1O[C@@](C#N)(c2ccc3c(N)ncnn23)[C@@H]2OC(=O)CC(C)(C)CC(=O)O[C@@H]21)N(C)C` [Compound C48, (2S,3R)-methyl 3-(((((7aR,8R,10R,10aR)-10-(4-aminopyrrolo[2,1-f][1,2,4]triazin-7-yl)-10-cyano-4,4-dimethyl-2,6-dioxooctahydro-2H-furo[3,4-b][1,4]dioxonin-8-yl)methoxy)carbonyl)oxy)-2-(dimethylamino)butanoate], the half-maximal effective concentration (EC50) in data set [1] and in data set [4] was more than 50000 nM throughout. Besides, the “Caco2 A to B” value in data set [2] (Caco-2) worked out at 0.22. For the same compound, in data set [2] (Caco-2), the “Caco2 B to A” value turned out to be 1.81. The half-life at 2 μM amounted to 20.3 min in data set [3] and 29.5 min in data set [6]. For the same compound, the CC50 in data set [5] is more than 50 µM.
In the case of `N#C[C@@]1(c2ccc3c(N)ncnn23)O[C@H](COC(=O)OCCN2CCOCC2)[C@H]2OC(=O)CCCC(=O)O[C@H]21` [Compound C19, ((7aR,8R,10R,10aR)-10-(4-aminopyrrolo[2,1-f][1,2,4]triazin-7-yl)-10-cyano-2,6-dioxooctahydro-2H-furo[3,4-b][1,4]dioxonin-8-yl)methyl (2-morpholinoethyl) carbonate], the EC50 in data set [1] came out at 8620 nM; in data set [4], 4310 nM. Also, the half-life at 2 μM in data set [3] is 90.3 min; in data set [6], 0.552 min. In data set [5], this compound registered a CC50 of more than 50 µM.
The corresponding values for `CC(C)[C@H](N)C(=O)OC[C@H]1O[C@@](C#N)(c2ccc3c(N)ncnn23)[C@@H]2OC(=O)CCCC(=O)O[C@@H]21` [Compound C59, ((7aR,8R,10R,10aR)-10-(4-aminopyrrolo[2,1-f][1,2,4]triazin-7-yl)-10-cyano-2,6-dioxooctahydro-2H-furo[3,4-b][1,4]dioxonin-8-yl)methyl L-valinate] are 5970 nM, 6830 nM, 18.5 min, 0.586 min and more than 50 µM.
Consider `CCOC(=O)C(C)(C)OC(=O)OC[C@H]1O[C@@](C#N)(c2ccc3c(N)ncnn23)[C@@H]2OC(=O)CCCC(=O)O[C@@H]21` [Compound C26, ethyl 2-(((((7aR,8R,10R,10aR)-10-(4-aminopyrrolo[2,1-f][1,2,4]triazin-7-yl)-10-cyano-2,6-dioxooctahydro-2H-furo[3,4-b][1,4]dioxonin-8-yl)methoxy)carbonyl)oxy)-2-methylpropanoate], for which the results for the EC50 in data set [1] and in data set [4] were more than 50000 nM and 39900 nM, respectively. The half-life at 2 μM came out at 18.3 min in data set [3] and 0.618 min in data set [6]. This compound showed a cytotoxic concentration (CC50) in data set [5] of more than 50 µM.
In the same order, the values of `CC1(C)CC(=O)O[C@H]2[C@@H](OC(=O)C1)[C@](C#N)(c1ccc3c(N)ncnn13)O[C@@H]2CO` [Compound C11, (7aR,8R,10R,10aR)-8-(4-aminopyrrolo[2,1-f][1,2,4]triazin-7-yl)-10-(hydroxymethyl)-4,4-dimethyl-2,6-dioxooctahydro-2H-furo[3,4-b][1,4]dioxonine-8-carbonitrile] are more than 50000 nM, more than 50000 nM, 414 min, 24.3 min and more than 50 µM.
The corresponding values for `COC(=O)OC[C@H]1O[C@@](C#N)(c2ccc3c(N)ncnn23)[C@@H]2OC(=O)CC(C)(C)CC(=O)O[C@@H]21` [Compound C15, ((7aR,8R,10R,10aR)-10-(4-aminopyrrolo[2,1-f][1,2,4]triazin-7-yl)-10-cyano-4,4-dimethyl-2,6-dioxooctahydro-2H-furo[3,4-b][1,4]dioxonin-8-yl)methyl methyl carbonate] are more than 50000 nM, more than 50000 nM, 16.1 min, 6.22 min and more than 50 µM.
As for `CC(C)(OC(=O)OC[C@H]1O[C@@](C#N)(c2ccc3c(N)ncnn23)[C@@H]2OC(=O)CCCC(=O)O[C@@H]21)C(F)F` [Compound C25, ((7aR,8R,10R,10aR)-10-(4-aminopyrrolo[2,1-f][1,2,4]triazin-7-yl)-10-cyano-2,6-dioxooctahydro-2H-furo[3,4-b][1,4]dioxonin-8-yl)methyl (1,1-difluoro-2-methylpropan-2-yl) carbonate], the figures for the EC50 in data set [1] and in data set [4] were 6460 nM and 34300 nM, respectively. The half-life at 2 μM stood at 11.9 min in data set [3] and 0.559 min in data set [6]. The compound also registered a cytotoxic concentration (CC50) in data set [5] of more than 50 µM.
The corresponding values for `CC(C)[C@H](NC(=O)OC(C)(C)C)C(=O)OC[C@H]1O[C@@](C#N)(c2ccc3c(N)ncnn23)[C@@H]2OC(=O)CCCC(=O)O[C@@H]21` [Compound C58, ((7aR,8R,10R,10aR)-10-(4-aminopyrrolo[2,1-f][1,2,4]triazin-7-yl)-10-cyano-2,6-dioxooctahydro-2H-furo[3,4-b][1,4]dioxonin-8-yl)methyl (tert-butoxycarbonyl)-L-valinate] are 2840 nM, 5120 nM, 26.4 min, 0.577 min and more than 50 µM.
